The nature of data set [1]: Solubility in oils for SEDDS/SMEDDS. In kind it is physicochemical. The conditions noted are these: oil or lipid; neutral oil. On the procedure: Due to the relatively high doses necessary for therapeutic effect (approximately 500 mg) and a maximal dose in a self-emulsifying capsule formulation (SEDDS or SMEDDS) of not more than 5 mg, the patient would have to take 100 capsules to achieve the target dose.

A short description of data set [2]: Young's modulus by ultrasound-assisted instrumented single punch press. In kind it is physicochemical. The conditions noted are these: neat substance, in dependence of solid fraction; FIG. 3 and FIG. 4. On the procedure: Young's modulus is assessed as an indicator for material stiffness (the higher Young's modulus, the more rigid a substance is) whereby its measurement is done in dependence of the solid fraction, which is complementary to porosity (i.e. solid fraction=1−porosity fraction). With this, a solid fraction of 1 indicates no porosity, i.e. no air entrapped in the solid phase. Pharmaceutical relevant solid fractions usually range from 0.75 to 0.85. Porosities have been determined by nitrogen pycnometry.
The measurements to determine the Young's modulus are conducted on a commercially available instrumented single punch press (Romaco Kilian StylOne system) with ultrasound-assisted measurement punches. For this purpose, neat substances are compacted between the upper and the lower punch, leading to densification of the material. The ultrasound velocity in the sample in dependence of the degree of densification is recorded and used for calculation of Youngs modulus of the specific substance.

The nature of data set [3]: Solubility in biorelevant media (FaSSIF, FeSSIF). Here is the method:
Despite such low solubility rather high doses of far above 100 mg are needed for its use in the therapy. […] Accordingly, a pharmaceutical preparation for oral administration must have a high bioavailability to provide the high doses that are needed to achieve the desired therapeutic effect. Otherwise the pharmaceutical preparation would need to have an increased size not usable for its oral administration due to problems with its swallowability.

In brackets after ≈: the same amount, converted by molar mass. A value given as a limit tells only on which side of the number the result lay.

As usually defined, the solubility is how much of the substance goes into solution per volume.

Regarding `CN1CCC(COc2cnc(-c3cccc(Cn4nc(-c5cccc(C#N)c5)ccc4=O)c3)nc2)CC1` [3-(1-{3-[5-(1-Methyl-piperidin-4-ylmethoxy)-pyrimidin-2-yl]-benzyl}-6-oxo-1,6-dihydro-pyridazin-3-yl)-benzonitrile], the solubility in data set [1] was under 5000 µg/mL; in data set [3] (fassif), 43 µg/mL (≈ 87.3 µM). Besides, the “Young's modulus (elastic properties)” value in data set [2] was “distinct lower Young's moduli compared to widely used pharmaceutical fillers”. For the same compound, the BCS classification result in data set [3] (Amidon et al., 1995) is reported as “BCS IV”.

(Values after patent publication US20220288068A1, “PHARMACEUTICAL PREPARATION” (MERCK PATENT GMBH, priority 2019, published 2022).)
